The source of these data is publication PMC11901438, “Synthesis and Evaluation of Boron-Containing Heterocyclic Compounds with Antimicrobial and Anticancer Activities” (Molecules, 2025).

Usually pIC50 stands for −log10 of the IC50, conventionally taken in molar units. As a reminder, the MIC90 is an inhibitory concentration at the 90% level, which refers to growth in some studies and to a panel of isolates in others. For orientation: MIC means the least concentration at which growth counts as inhibited.

pIC50: −log10 of the molar value. In brackets after ≈: the same amount, converted by molar mass. Bounds are passed on as bounds.

Assay [1] deals with leucyl-tRNA synthetase (LeuRS). Also on record: method as in PMID 28953378, PMID 38365949. The following applies: cited from earlier work.
Assay [2] has as its system M. tuberculosis H37Rv strains. The following applies: cited from earlier work.
For assay [3], the system named is T. rubrum (ATCC 1890, ATCC 18759). Also on record: method as in PMID 17588934. The following applies: cited from earlier work.
Assay [4] concerns T. mentagrophytes (ATCC 28185). Also on record: method as in PMID 17588934. The settings on record: cited from earlier work.
Assay [5] has as its system M. audouinii (ATCC 42558). Also on record: method as in PMID 17588934. The settings on record: cited from earlier work.
The subject of a further assay is M. gypseum (ATCC 24103). Also on record: method as in PMID 17588934. The following applies: cited from earlier work.
For assay [6], the system named is E. floccosum (ATCC 525066). Also on record: method as in PMID 17588934. The following applies: cited from earlier work.
In the next assay the test system is T. mentagrophytes. Also on record: method as in PMID 29371574. The following applies: cited from earlier work.
A further assay deals with T. rubrum. Also on record: method as in PMID 29371574. The settings on record: cited from earlier work.
Details of assay [7]: method as in PMID 26640371. The settings on record: cited from earlier work.
The subject of a further assay is C. albicans ATCC 90028. Description: Antifungal susceptibility test (CLSI M27-A3 microdilution, resazurin), MIC90. The following applies: Candida albicans, ATCC90028, read-out: C. albicans ATCC 90028 MIC90. (Broth dilution looks for growth in wells or tubes with falling amounts of substance.)

Turning to `NC[C@H]1OB(O)c2c(OCCO)ccc(Cl)c21` [ganfeborole, (S)-3-(aminomethyl)-4-chloro-7-(2-hydroxyethoxy)benzo[c][1,2]oxaborol-1(3H)-ol], the pIC50 in [1] is 6.70. Moreover, in [2], the MIC90 was 0.08 µM (≈ 0.0206 µg/mL) and the “MIC against M. tuberculosis H37Rv strains” value is 0.08 µM (≈ 0.0206 µg/mL).
For the compound `OB1OCc2cc(F)ccc21` [Tavaborole], the MIC in assay [3] is given as 2.0 µg/mL (≈ 13.2 µM); in assay [4], 2.0 µg/mL (≈ 13.2 µM); in assay [5], 2.0 µg/mL (≈ 13.2 µM); in the assay with M. gypseum (ATCC 24103), 2.0 µg/mL (≈ 13.2 µM); in [6] it was 1.0 µg/mL (≈ 6.58 µM). Also, the “MIC (fungistatic effects)” value in the assay on T. mentagrophytes and in the assay on T. rubrum was 8 µg/mL (≈ 52.7 µM) throughout. Further, the “rate of complete cure” value in assay [7] was at most 10%. Besides, the “rate of mycological cure” value in assay [7] was “up to 36%”.
As for `CCC(C)n1ncn(-c2ccc(N3CCN(c4ccc(OCC5COC(Cn6cncn6)(c6ccc(Cl)cc6Cl)O5)cc4)CC3)cc2)c1=O` (stereo not shown) [Itraconazole], the MIC90 with C. albicans ATCC 90028 came to 0.00034 µM (≈ 0.00024 µg/mL).
